Measurements published in patent US4882327A, “Certain heterocyclic N-substituted carboxamides” (Beecham Group p.l.c., priority 1987, dated 1989).
Counter-ions that a name gives are not always drawn.

These compounds were tested on von Bezold-Jarisch reflex evoked by 5-HT (assay: Antagonism of the von Bezold-Jarisch reflex evoked by 5-HT in the anesthetized rat). Conditions: iv, urethane-anesthetized male rats, submaximal 5-HT (usually 6 μg/kg i.v.), heart rate changes, read-out: ED50 (dose required to reduce the 5-HT-evoked response to 50% of the control response).
Assay type: in vivo
Description: Antagonism of the von Bezold-Jarisch reflex
The compounds were evaluated for antagonism of the von Bezold-Jarisch reflex evoked by 5-HT in the anesthetized rat according to the following method
Male rats 250-350 g, were anesthetized with urethane (1.25 g/kg intraperitoneally) and blood pressure and heart rate recorded as described by Fozard J. R. et al., J. Cardiovasc Pharmacol 2, 229-245 (1980). A submaximal dose of 5-HT (usually 6 μg/kg) was given repeatedly by the intravenous route and changes in heart rate quantified Compounds were given intravenously and the concentration required to reduce the 5-HT-evoked response to 50% of the control response (ED50) was then determined.

Compound	ED50 [µg/kg]
CCc1nc(C(=O)NC2CC3CCCC(C2)N3C)c2ccccn12 (centres unmarked) [Compound 8]	0.5
CN1C2CCC1CC(NC(=O)c1ccc3cccccc1-3)C2 (stereo not drawn) [Compound 17, (endo)-N-(8-Methyl-8-azabicyclo[3.2.1]octan-3-yl)azulene-1-carboxamide]	13
CCc1nc(C(=O)NC2CC3CCC(C2)N3C)c2ccccn12 (stereo not drawn) [Compound 9, (endo)-N-(8-Methyl-8-azabicyclo[3,2,1]oct-3-yl)-3ethylimidazo[1,5-a]plyridin-1-carboxamide]	1
CN1C2CCC1CC(NC(=O)C1=CC(C)(C)c3ccccc31)C2 (stereo not drawn) [Compound 13, (endo)-N-(8-Methyl-8-azabicyclo[3.2.11]octan-3-yl)-3,3-dimethylindene-1-carboxamide monohydrochloride]	1.1
CCc1cc(C(=O)NC2CC3CCC(C2)N3C)c2ccccn12 (stereo not drawn) [Compound 2, (endo)-N-(8-Methyl-8-azabicyclo[3.2.1]oct-3-yl)-3-ethylindolizin-1-carboxamide]	0.24
